# Literature values in patent US6812249B2, “Process for preparing a 3-hydroxy-3-methylbutyrate amino acid salt and method of use” (priority 2003, dated 2004).
# Conditions: experienced weight trained athletes; oral supplementation for 6 weeks or 28 days
compound,measurement,value
CC(C)(O)CC(=O)[O-].CC(C)(O)CC(=O)[O-].[Ca+2] [HMB calcium salt],"alteration in muscle size, fat mass, or strength variables","no alteration in muscle size, fat mass, or strength variables"
